# Assay results as given in patent publication US11292803B2, “Bioreducible N-oxide-based probes for imaging of hypoxia” (THE BOARD OF TRUSTEES OF THE UNIVERSITY OF ILLINOIS, priority 2018, dated 2022).
# Key:
# [1] = test system: purified bacterial nitroreductase; assay: Incubation with purified nitroreductase; assay type: biochemical; conditions: NADH, 37° C., 2 h
# Description: FIG. 15. […] For the nitroreductase experiment, HyP-1 (2 μM) was incubated in the presence of nitroreductase (0.5 μg/mL) and NADH (100 μM) in 0.1 M potassium phosphate buffer (pH 7.4) at 37° C. for 2 h. For the bacterial experiment, bacteria were grown overnight, and cells were lysed via sonication. The suspension was centrifuged at 4000 rpm for 10 min, and the supernatant was removed. HyP-1 (2 μM) was incubated with cell lysate solution (1 mL) at 37° C. for 2 h.
# (§1) In addition to Fe(II), the response of HyP-1 to a variety of alkali, alkaline earth and transition metals was also determined. […] To further evaluate the stability of HyP-1, a 10 μM solution of the probe was exposed to ambient light and temperature for up to 5 days. Additionally, a 10 μM solution of HyP-1 supplemented with human plasma was incubated at 37° C. for 3 hours. […] As mentioned previously, a major limitation of 2-nitroimidazole-based hypoxia probes is their susceptibility to oxygen-independent reduction via two-electron processes, such as by bacterial nitroreductases. […] Finally, the photostability of both HyP-1 and red-HyP-1 was evaluated via continuous PA image acquisition at 770 nm over the course of 1 hour.
# 4T1 tumour allografts = assay: In vivo fluorescence imaging of hypoxic tumour model; set-up: species or system BALB/c mice; conditions: intratumoural injection 50 μL, 100 μM; after 1 hour
# Description: Tumour allografts were generated via subcutaneous implantation of 4T1 cells into the right flanks of BALB/c mice. The tumours were allowed to grow to volumes of 300-400 mm^3 prior to imaging. As an initial study to visualize the intratumoural conversion of HyP-1 to red-HyP-1 in real time, ratiometric fluorescence imaging was performed immediately following administration of HyP-1 (50 μL, 100 μM) via intratumoural or subcutaneous (control) injection.
# All in vivo imaging experiments were performed with the approval of the Institutional Animal Care and Use Committee of the University of Illinois at Urbana-Champaign, following the principles outlined by the American Physiological Society on research animal use. Female mice (5-6 weeks old) were acquired from The Jackson Laboratory. A suspension of 0.5×10^6 cells in serum-free medium containing 50% v/v matrigel (100 μL) was subcutaneously injected into the right flank of each mouse. Tumours with volumes of 300-400 mm^3 formed after 12-15 days. […]
# (§2) Images were obtained using epi-fluorescence with excitation filters of 675 and 745 and corresponding emission filters of 720 and 800, respectively. […] ROIs of equal area were drawn around signals, and the total radiant efficiency in each ROI was determined. Ratiometric signal was calculated by determining the ratio of radiant efficiency corresponding to 800 nm and 720 nm emissions.
# [2] = Stability in human plasma; assay type: in vitro ADME; conditions: 10 μM solution supplemented with human plasma, 37° C., 3 hours
# Description: FIG. 12. Fluorescence intensity (Ex.=670 nm) of HyP-1 (2 μM) at the indicated time points during incubation in 0.1 M potassium phosphate buffer (pH 7.4) supplemented with human plasma (20% v/v) at 37° C. for 3 h.
# as §1
# [3] = Response of probe to Fe(II)
# Description: FIG. 8. Ratiometric fluorescence turn-on response of HyP-1 (2 μM) in the presence of FeSO4 (20 μM) and FeSO4 (20 μM)+GSH (1 mM) in 50 mM HEPES buffer (pH 7.4, 0.1% v/v CrEL) after 1 h incubation at 37° C.
# Fe(II)-mediated reduction of N-oxides has been exploited previously for the development of several fluorescent probes for this metal ion, thus it was critical for us to determine the response of HyP-1 to Fe(II). […] However, because intracellular concentrations of free iron are low due to sequestration by ferritin, this was not anticipated to be a major source of HyP-1 activation in vivo.
# rat liver microsomes = assay: PA response after rat liver microsome incubation, tissue-mimicking phantom; assay type: biochemical; conditions: 2 h incubation with RLM, quenched with acetonitrile
# Description: FIG. 4. Hypoxia-selective response of HyP-1 in vitro. […] Dashed lines indicate positioning of FEP tubes.
# Tissue phantoms were prepared by suspending agarose (4 g) in a solution of 2% milk (2 mL) and deionized H2O (78 mL). The suspension was then heated in a microwave oven until a viscous gel was produced (30-50 seconds). The gel was transferred to a mold made by drilling holes through a 50 mL centrifuge tube and placing FEP tubes (0.08″ diameter) through the holes to create spaces for samples. After cooling the gel for a minimum of 3 hours, the solidified phantom was removed from the mold and cut with a razor blade such that the distance from the sample holes to the phantom's edges was 1.0 cm. To image samples, sample solutions were pipetted into FEP tubing (0.08″ diameter, cut to 10 cm long) which was inserted into the phantom and sealed by folding over the ends and securing with additional tubing (0.12″ diameter, cut to 5 mm long). Images were acquired using the Step and Shoot mode with 120 angles and 10 pulses per angle. Data was analysed using OsiriX Lite software (Version 8.0). Thick slab processing was used to visualize accumulated signal over 5 mm. ROIs of equal area were drawn around areas containing signal, and mean PA signal in each ROI was recorded.
# ischemic hindlimb tissue = assay: In vivo fluorescence imaging of hindlimb ischemia model; set-up: species or system BALB/c mice; conditions: intramuscular 50 μL, 50 μM; over 1 hour
# Description: To visualize the response of HyP-1 in a model of rapidly developing hypoxia, a murine hindlimb ischemia model of peripheral artery disease was employed. Ischemia was induced in the right hindlimb of BALB/c mice via ligation of the femoral artery. […] After a 1-hour recovery period, HyP-1 (50 μL, 50 μM) was administered via intramuscular injection into both hindlimbs of the mouse. To visualize the time-dependent response of HyP-1 in the ischemic and non-ischemic tissue, ratiometric fluorescence imaging was performed over the course of 1 hour immediately following injection. […]
# All in vivo imaging experiments were performed with the approval of the Institutional Animal Care and Use Committee of the University of Illinois at Urbana-Champaign, following the principles outlined by the American Physiological Society on research animal use. […] Animals that underwent unsuccessful surgery as determined by laser Doppler perfusion imaging were excluded from analysis.
# as §2
smiles,measurement,setting,value
"CC[N+]([O-])(CC)c1ccc(-c2cc(-c3ccccc3)c3n2[B-](F)(F)[N+]2=C(c4ccc(OC)cc4)C=C(c4ccccc4)C2=N3)cc1 [HyP-1, 4-(5,5-difluoro-7-(4-methoxyphenyl)-1,9-diphenyl-5H-5λ^4,6λ^4-dipyrrolo[1,2-c:2′,1′-f][1,3,5,2]triazaborinin-3-yl)-N,N-diethylaniline oxide]",conversion to red-HyP-1,[1],minimal conversion
same,"ratiometric fluorescent turn-on, tumour tissue versus subcutaneous control",4T1 tumour allografts,5.6 fold
same,decomposition in human plasma,[2],no substantial decomposition
same,ratiometric turn-on,"[3]; 20 μM FeSO4 + 1 mM GSH, HEPES buffer, 1 h",35 fold
same,ratiometric turn-on,"[3]; 20 μM FeSO4 in HEPES buffer, 1-hour incubation",8 fold
same,"PA signal (770 nm), hypoxic reaction versus normoxic",rat liver microsomes,4 fold
same,"ratiometric signal, ischemic tissue versus control",ischemic hindlimb tissue,3 fold
